Test results as given in publication PMC10874388, “Cyclic peptides discriminate BCL-2 and its clinical mutants from BCL-XL by engaging a single-residue discrepancy” (Nature Communications, 2024).
Where “and” joins values, the source holds several entries; their conditions need not be identical. Equal entries are not always repeated. Starred links: 1 amine or outer side, 2 acyl side, 3 side chain; linkers in the order of their positions; H or OH if unused. Positions of bridges follow the written chain, without caps; N, C: chain ends. Residues, ends and D or L forms follow the SMILES beside them. No end group written: not given here. X1 = O=C(C[*:2])NCCNC(=O)c1ccc(C2=N[C@H](C(=O)[*:1])CS2)cc1; cADT = 2-aryl-4,5-dihydrothiazole (ADT) linker

T1: chimeric human BCL-2 (residues 1-50 and 92-207, residues 35-50 replaced with residues 33-48 of BCL-XL) (human, UniProt P10415 1-34; Q07817-1 33-48; P10415 92-207, biotin (biotinylated for SPR; site not stated))
T1 construct: BCL-2, human, residues 1-34 of the chimera (internal loop 51-91 removed; residues 35-50 replaced with residues 33-48 of BCL-XL); BCL-XL, human, residues 33-48, in place of BCL-2 residues 35-50; BCL-2, human, residues 92-207; Biotinylated for SPR; used as such for crystals and fluorescence polarisation; also called BCL-2 WT; source: E. coli BL21 (DE3), purified (Ni-NTA, Superdex 75, RESOURCE Q, …)
T1 chain (looked up): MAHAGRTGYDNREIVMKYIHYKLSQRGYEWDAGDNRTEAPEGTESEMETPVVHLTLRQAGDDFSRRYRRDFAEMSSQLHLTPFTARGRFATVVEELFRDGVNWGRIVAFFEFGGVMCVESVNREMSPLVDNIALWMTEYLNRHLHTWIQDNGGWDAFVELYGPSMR


Experiments:
Daudi cells = assay: Cell viability assay (CellTiter-Glo), Daudi; format: cell-based; conditions: 48 h treatment, CellTiter-Glo
Method: (§1) The cell lines Jurkat (TIB-152), El4 (TIB-39), Daudi (ccl-213), RS4:11 (crl-1873), A549 (ccl-185), HepG2 (hb-8065) and PANC-1 (crl-1469) were purchased from ATCC (American Type Culture Collection), and MGC-803 (C6582) was purchased from Beyotime (https://www.beyotime.com/product/C6582.htm). […] Daudi and RS4:11 cells were cultured in RPMI-1640 medium (HyClone, SH30809.01) and 10% FBS (Gibco, 10099-141), whereas HepG2, MGC-803 and PANC-1 cells were cultured in MDEM (HyClone, SH30243.01). Cells were maintained at 37 °C under a humidified, 5% (v/v) CO2-containing atmosphere.
(§2) Cell viability was measured using CellTiter-Glo® 2.0 Reagent (Promega, G9242). […] After different inhibitors were added into serum-free medium and cultured for 4 h (RS4:11 for 6 h), FBS were supplemented to 10% and then incubated totally for 24 h or 48 h. Finally, the IC50 values were calculated based on measurements using a microplate reader (Thermo, Varioskan LUX). Statistical analysis was performed using software GraphPad Prism 7.0.

RS4:11 cells = assay: Cell viability assay (CellTiter-Glo), RS4:11; format: cell-based; conditions: RS4:11, single wells
Method: as §1, §2

Jurkat cells [1] = assay: Apoptosis assay, Annexin V-FITC/PI staining and flow cytometry; format: cell-based; conditions: for cell apoptosis(%): Figure 6b, replicate values; for Proportion of apoptotic cells: Jurkat, 24 h
Method: Jurkat cells were seeded to 6-well plates at a density of 4 ×10^5 cells per well. Cells were incubated in the presence of DMSO, venetoclax at 2.5 μM, cp1-TAT at 30 μM, cp2-TAT at 30 μM, or cp3-TAT at 20 μM in serum-free RPMI medium for 4 h. After being incubated totally for 24 h, cells were washed once with PBS and stained with 100 μL binding buffer containing 5 μL Annexin V-FITC and 10 μL PI for 15 min, followed by addition of 400 μL binding buffer to detect cell apoptosis with FCM (BD FACSAria Fusion). Statistical analysis was performed using software FlowJo V10 and GraphPad Prism 7.0.

Jurkat cells [2] = assay: Mitochondrial membrane potential (JC-1), flow cytometry and fluorescence microscopy; format: cell-based; conditions: for Q1(%) / Q1(%)/Q3(%) / Q3(%): Figure 6d, 4h, replicate values; for ΔΨm (ratio of red over green fluorescence, Q1/Q3) / Relative ΔΨm by JC-1 fluorescence staining (microscopy): Jurkat; for ΔΨm (ratio of red over green fluorescence, Q1/Q3): 4 h treatment, JC-1, flow cytometry, n = 3; for Relative ΔΨm by JC-1 fluorescence staining (microscopy): 24 h treatment (Supplementary Fig. 13)
Method: For the mitochondrial membrane potential (ΔΨm) analysis, the mitochondrial membrane potential assay kit with JC-1 dye (Beyotime, C2006) was used according to the manufacturer’s protocol. […] The value of ΔΨm was expressed as the ratio of red fluorescence intensity over green fluorescence intensity. After treated with JC-1, fluorescence intensity of Jurkat cells was tested by flow cytometry (BD FACSAria Fusion) and fluorescence microscopy (NIKON Ti-E), respectively. All experiments were performed in triplicate. Statistical analysis was performed using software GraphPad Prism 7.0.

[3] = target: T1, chimeric human BCL-2 (residues 1-50 and …); assay: SPR; Biacore T200; biotinylated proteins immobilised on a CAP sensor chip; peptides flowed in multiple cycles (25-12800 nM, depending on the peptides) at 30 uL/min; 10 mM PBS, 50 uM EDTA, 0.05% Tween-20, 25 °C; affinity fitting, 1:1 binding model; conditions: both partners purified
[4] = target: T2, human BCL-XL (residues 1-210, with 27-81 and 210-233 removed) (human, UniProt Q07817-1 1-209, 27-81 removed, biotin (biotinylated for SPR; site not stated)); assay: as above; conditions: both partners purified
T2 construct: BCL-XL, human; printed as residues 1-210, with 27-81 and 210-233 removed (so the last residue is 209 or 210); source: E. coli BL21 (DE3), purified (Ni-NTA, Superdex 75, RESOURCE Q, Superdex 200)
T2 sequence (Q07817 other isoform, or with tags, fused parts or gaps 27-81 removed | 27-81 removed): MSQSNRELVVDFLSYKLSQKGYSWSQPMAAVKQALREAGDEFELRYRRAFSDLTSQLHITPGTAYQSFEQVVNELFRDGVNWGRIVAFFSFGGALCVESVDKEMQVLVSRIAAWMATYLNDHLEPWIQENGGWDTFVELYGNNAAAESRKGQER

Molecule | raw luminescence reading (RS4:11 cells; 0.0488281 uM) | raw luminescence reading (RS4:11 cells; 0.0976562 uM) | raw luminescence reading (RS4:11 cells; 0.195312 uM) | raw luminescence reading (RS4:11 cells; 0.390625 uM) | raw luminescence reading (RS4:11 cells; 0.78125 uM) | raw luminescence reading (RS4:11 cells; 1.5625 uM) | raw luminescence reading (RS4:11 cells; 3.125 uM) | raw luminescence reading (RS4:11 cells; 6.25 uM) | raw luminescence reading (RS4:11 cells; 12.5 uM) | inhibition rate (RS4:11 cells; 12.5 uM, 12.5 µM) | raw luminescence reading (RS4:11 cells; 25 uM) | inhibition rate (RS4:11 cells; 25 uM, 25 µM) | cell apoptosis(%) (Jurkat cells [1]) | Q1(%) (Jurkat cells [2]) | Q1(%)/Q3(%) (Jurkat cells [2]) | Q3(%) (Jurkat cells [2]) | ΔΨm (ratio of red over green fluorescence, Q1/Q3) (Jurkat cells [2]) | Relative ΔΨm by JC-1 fluorescence staining (microscopy) (Jurkat cells [2]) | Kd [3] [nM] | Kd [4] [nM] | further results
CC[C@H](C)[C@@H]1NC(=O)[C@@H]2CCCN2C(=O)[C@@H]2CSC(=N2)c2ccc(cc2)C(=O)NCCNC(=O)CSC[C@@H](C(=O)NCC(=O)N[C@@H](CO)C(=O)NCC(=O)N[C@@H](CO)C(=O)N[C@@H](CCCNC(=N)N)C(=O)N[C@@H](CCCCN)C(=O)N[C@@H](CCCCN)C(=O)N[C@@H](CCCNC(=N)N)C(=O)N[C@@H](CCCNC(=N)N)C(=O)N[C@@H](CCC(N)=O)C(=O)N[C@@H](CCCNC(=N)N)C(=O)N[C@@H](CCCNC(=N)N)C(=O)N[C@@H](CCCNC(=N)N)C(N)=O)NC(=O)[C@H](CCC(=O)O)NC(=O)[C@H](C(C)C)NC(=O)[C@H](CC(=O)O)NC(=O)[C@H](Cc2c[nH]c3ccccc23)NC(=O)[C@@H]2CCCN2C(=O)[C@H](Cc2ccc(O)cc2)NC(=O)[C@H](CCCNC(=N)N)NC1=O [cp3-TAT] (PIRYPWDVECGSGSRKKRRQRRR-NH2; linker N-10 via X1; C-terminus assumed) | 433900 and 423300 and 457600 and 413600 and 399000 and 376500 | 420200 and 404600 and 437700 and 401400 and 384500 and 361600 | 419000 and 421800 and 444400 and 422500 and 407600 and 396300 | 424000 and 396600 and 443200 and 395300 and 386700 and 379800 | 411200 and 409100 and 439500 and 400400 and 395700 and 387400 | 353400 and 425900 and 446500 and 460500 and 369200 and 455200 | 352000 and 428300 and 434800 and 455400 and 358000 and 465500 | 339600 and 384800 and 395500 and 428900 and 341900 and 416000 | 266500 and 298700 and 305700 and 333300 and 270500 and 326800 | 37% and 29% and 28% and 21% and 36% and 23% | 85450 and 98110 and 94850 and 106300 and 88910 and 106600 | 80% and 77% and 78% and 75% and 79% | 99.03% and 93.5% | 56.7% and 57.7% and 59.6% | 1.435 and 1.514 and 1.628 | 39.5% and 38.1% and 36.6% | 1.53 | red fluorescence almost disappeared | – | – | IC50 (Daudi cells): 7940 nM; inhibition rate (RS4:11 cells; 50 uM): 100%; inhibition rate (RS4:11 cells; 100 uM): 100%; Proportion of apoptotic cells (Jurkat cells [1]; 20 μM): 99.03%
C[C@@H]1NC(=O)[C@@H]2CCCN2C(=O)[C@@H]2CSC(=N2)c2ccc(cc2)C(=O)NCCNC(=O)CSC[C@@H](C(=O)NCC(=O)N[C@@H](CO)C(=O)NCC(=O)N[C@@H](CO)C(=O)N[C@@H](CCCNC(=N)N)C(=O)N[C@@H](CCCCN)C(=O)N[C@@H](CCCCN)C(=O)N[C@@H](CCCNC(=N)N)C(=O)N[C@@H](CCCNC(=N)N)C(=O)N[C@@H](CCC(N)=O)C(=O)N[C@@H](CCCNC(=N)N)C(=O)N[C@@H](CCCNC(=N)N)C(=O)N[C@@H](CCCNC(=N)N)C(N)=O)NC(=O)[C@H](CCC(=O)O)NC(=O)[C@H](Cc2ccc(O)cc2)NC(=O)[C@H](CC(=O)O)NC(=O)[C@H](Cc2c[nH]c3ccccc23)NC(=O)CNC(=O)[C@H](Cc2ccc(O)cc2)NC(=O)[C@H](CCCNC(=N)N)NC1=O [cp1-TAT] (PARYGWDYECGSGSRKKRRQRRR-NH2; linker N-10 via X1; C-terminus assumed) | 483100 and 539500 and 548500 and 508300 and 527200 and 488600 | 528800 and 591800 and 582200 and 559700 and 554700 and 529500 | 524900 and 538800 and 551800 and 528900 and 518500 and 499500 | 511700 and 533900 and 533200 and 520400 and 504300 and 479000 | 535400 and 544100 and 562800 and 550400 and 519400 and 494800 | 520400 and 578500 and 612400 and 550500 and 491200 and 506800 | 414000 and 466800 and 497600 and 501300 and 428800 and 513500 | 401900 and 468400 and 486300 and 500900 and 419400 and 497100 | 380500 and 444100 and 470000 and 488300 and 390700 and 473300 | 11% | 309300 and 375600 and 407800 and 416800 and 350200 and 401000 | 42% and 29% and 23% and 21% and 34% and 24% | 66.77% and 60.2% | 67.4% and 59.1% and 60.9% | 5.861 and 3.177 and 3.421 | 11.5% and 18.6% and 17.8% | 4.15 | slightly decreased | – | – | inhibition rate (RS4:11 cells; 0.195312 uM, 0.195312 µM): 0.825% and -1.8% and -4.26% and 0.0693% and 2% and 5.62%; raw luminescence reading (RS4:11 cells; 50 uM): 222600 and 265500 and 282300 and 297300 and 246800 and 283000; inhibition rate (RS4:11 cells; 50 uM, 50 µM): 58% and 50% and 47% and 44% and 53%; raw luminescence reading (RS4:11 cells; 100 uM): 63070 and 74540 and 82840 and 89800 and 66010 and 86930; inhibition rate (RS4:11 cells; 100 uM, 100 µM): 88% and 86% and 84% and 83%; Proportion of apoptotic cells (Jurkat cells [1]; 30 μM): 66.77%
CPIRYGWDEFC (linker 1-11 via cADT (inferred), cp4 is cp2 with E6 substituted by G6; source: synthetic peptide) [cp4] | – | – | – | – | – | – | – | – | – | – | – | – | – | – | – | – | – | – | 80 | 470 | –
CPIRYPWDEFC (linker 1-11 via cADT (inferred), cp5 is cp2 with E6 substituted by P6; source: synthetic peptide) [cp5] | – | – | – | – | – | – | – | – | – | – | – | – | – | – | – | – | – | – | 80 | 40 | –
